Here are results for four compounds from patent publication US11337969B2, “Methods for treating cancer” (X4 Pharmaceuticals, Inc., priority 2016, dated 2022).

In general, solubility refers to the concentration that dissolves in the medium under given conditions. The term half-life denotes how long it takes for the measured level to halve. A lower half-life goes with fast loss.

Data set [1] has as its system melanoma, renal cell carcinoma, and ovarian cancer. To be noted: including decreased metastasis and increased overall survival; cited from earlier work.
The conditions of data set [2]: subcutaneous injection; cited from earlier work.
Data set [3] can be described thus: Solubility of X4P-001 as a function of pH. In kind it is physicochemical.
Another data set in a line: in vivo. The protocol: In certain embodiments, the dosage composition may be provided twice a day in divided dosage, approximately 12 hours apart. In other embodiments, the dosage composition may be provided once daily. […] Dosage for oral administration may be from about 100 mg to about 1200 mg once or twice per day.
For data set [4] the following is noted: oral administration, healthy volunteers and HIV patients; cited from earlier work.
Data set [5] concerns advanced clear-cell renal-cell carcinoma. To be noted: cited from earlier work; for objective response rate: patients after one or two antiangiogenic regimens, nivolumab 3 mg/kg iv every two weeks or everolimus 10 mg orally daily, P<0.001.
Setting [6] is: nivolumab compared to everolimus.

A value given as a limit tells only on which side of the number the result lay.

Consider `c1cc(CN2CCCNCCNCCCNCC2)ccc1CN1CCCNCCNCCCNCC1` [Plerixafor, reference compound], for which the anti-tumor activity entry in data set [1] is “significant anti-tumor activity”. Further, in data set [2], the half life entry is given as “very short”.

With `NCCCCN(Cc1nc2ccccc2[nH]1)[C@H]1CCCc2cccnc21` [X4P-001], the solubility in data set [3] (aqueous buffer, pH range 3.0 to 8.0 (freely soluble)) was greater than 100 mg/mL. Besides, in data set [3] (water), the Solubility in water entry was “only slightly soluble”. Further, the terminal half-life entry in the data set “in vivo” is “approximately 14.5 hrs”. The compound also yielded a half-life in the data set “in vivo” (terminal half-life) of 12 to 24 h. In data set [4], the “pharmacodynamic activity: circulating white blood cells (WBCs)” value was “dose- and concentration-related changes”; the “volume of distribution (VL)” value was “high”. The anti-tumor activity result in data set [1] is reported as “significant anti-tumor activity”.

With `CO[C@H]1C[C@@H]2CC[C@@H](C)[C@@](O)(O2)C(=O)C(=O)N2CCCC[C@H]2C(=O)O[C@H]([C@H](C)C[C@@H]2CC[C@@H](OCCO)[C@H](OC)C2)CC(=O)[C@H](C)/C=C(\C)[C@@H](O)[C@@H](OC)C(=O)[C@H](C)C[C@H](C)/C=C/C=C/C=C/1C` [everolimus], in data set [5], the objective response rate is on record as 5%.

“nivolumab: human IgG4 anti-PD-1 monoclonal antibody”: in data set [5] (setting [6]), the “incidence of Grade 3 or 4 treatment-related adverse events” value is “lower incidence” and the median overall survival result is listed as “longer”. The objective response rate in data set [5] was 25%.
